Peptide text beside a SMILES is read from it.
Experiments:
[1] = 50° C., 50 mM TES, pH 8.0 and 30% isopropanol
[2] = pH 8
Soy = assay: Growth test, foliar spray, soy; assay type: in vivo
Description: For growth tests, corn and soy seeds were planted in flats with 2 seeds per cell within the flat at a greenhouse facility. The seeds were allowed to germinate and the smaller plant is culled, leaving one plant per cell. Once the first true leaves are fully expanded and the second leaves are beginning to expand, the plants were initially measured for height. This was performed by stretching the highest leaf upward and measuring the distance to the soil. Peptides were dissolved in water at the indicated concentrations (below). The plants were then treated with a foliar spray using widely available spray bottles until liquid was dripping from the leaves. 4 flats of 14 plants each were treated per condition (peptide or control). Corn and soy were treated as indicated in Table 13 and compared with matched water-treated control plants. The plants were allowed to grow for 14 days. The height of the plants was again measured and compared to the original height to quantify growth. In some cases, the plants were allowed to grow without watering for 2-4 days until the onset of wilting and drought stress. At this time, the above-ground portions of the plants were harvested and weighed to determine the fresh mass. […] Growth, dry biomass, and fresh mass are calculated as the % increase over the water-treated control.

CSCC[C@H](NC(=O)[C@H](CC(C)C)NC(=O)[C@H](C)NC(=O)[C@H](CCC(N)=O)NC(=O)[C@H](CCSC)NC(=O)[C@@H]1CCCN1C(=O)[C@H](CC(=O)O)NC(=O)[C@@H](N)CCC(N)=O)C(=O)N[C@@H](CCC(N)=O)C(=O)N[C@@H](CC(C)C)C(=O)N[C@@H](CC(C)C)C(=O)N[C@@H](CCC(=O)O)C(=O)N[C@@H](CC(=O)O)C(=O)N[C@@H](CC(C)C)C(=O)N[C@H](C(=O)N[C@@H](CCCCN)C(=O)N[C@@H](CC(C)C)C(=O)N[C@@H](CC(C)C)C(=O)N[C@@H](CCCCN)C(=O)O)C(C)C [Peptide P14d] (H-QDPMQALMQLLEDLVKLLK-OH; N-terminus and C-terminus assumed)
chemical stability for >50 days [1]: around 50%

CC[C@H](C)[C@H](NC(=O)[C@H](CCC(=O)O)NC(=O)[C@H](CCC(=O)O)NC(=O)[C@H](CCC(=O)O)NC(=O)[C@H](CCC(=O)O)NC(=O)[C@H](CCC(=O)O)NC(=O)[C@@H](N)CO)C(=O)N[C@@H](C)C(=O)N[C@@H](CCCCN)C(=O)N[C@@H](CC(C)C)C(=O)N[C@H](C(=O)N[C@@H](CO)C(=O)N[C@@H](C)C(=O)N[C@@H](CC(C)C)C(=O)N[C@H](C(=O)N[C@@H](CCC(=O)O)C(=O)N[C@@H](CO)C(=O)N[C@@H](CC(C)C)C(=O)N[C@@H](CC(C)C)C(=O)N[C@@H](CCC(=O)O)C(=O)O)[C@@H](C)CC)[C@@H](C)CC [Peptide P15-59] (H-SEEEEEIAKLISALIESLLE-OH; N-terminus and C-terminus assumed)
solubility [2]: > 10000 µg/mL

CC[C@H](C)[C@H](NC(=O)[C@H](CC(N)=O)NC(=O)[C@H](CO)NC(=O)[C@H](CCC(N)=O)NC(=O)[C@H](CO)NC(=O)[C@H](CC(=O)O)NC(=O)[C@H](CC(N)=O)NC(=O)[C@@H]1CCCN1C(=O)[C@H](CCCCN)NC(=O)[C@H](CO)NC(=O)[C@H](C)NC(=O)[C@H](CC(=O)O)NC(=O)[C@H](CCC(N)=O)NC(=O)[C@@H]1CCCN1C(=O)[C@H](CC(N)=O)NC(=O)[C@H](CCC(N)=O)NC(=O)[C@@H](NC(=O)[C@@H](NC(=O)[C@H](CO)NC(=O)[C@H](CC(=O)O)NC(=O)[C@@H]1CCCN1C(=O)[C@@H](NC(=O)CNC(=O)[C@H](Cc1ccccc1)NC(=O)[C@@H](N)CC(N)=O)[C@@H](C)O)[C@@H](C)O)C(C)C)C(=O)N[C@@H](C)C(=O)N[C@@H](CCCCN)C(=O)N[C@@H](CC(C)C)C(=O)N[C@H](C(=O)N[C@@H](CO)C(=O)N[C@@H](C)C(=O)N[C@@H](CC(C)C)C(=O)N[C@H](C(=O)N[C@@H](CCSC)C(=O)N[C@@H](CO)C(=O)N[C@@H](CC(C)C)C(=O)N[C@@H](CC(C)C)C(=O)N[C@@H](CCC(N)=O)C(=O)N[C@@H](CCSC)C(=O)O)[C@@H](C)CC)[C@@H](C)CC [Peptide P15a] (H-NFGTPDSTVQNPQDASKPNDSQSNIAKLISALIMSLLQM-OH; N-terminus and C-terminus assumed)
solubility [2]: > 10000 µg/mL

SEGISEKQLDQLLSQLIEALLQP [Peptide P4-14S-18E]
Growth (% difference) (Soy; Rate 2.0, 14 days, % increase over water-treated control): 9.0 % difference | Dry biomass (% difference) (Soy; Rate 2.0, % increase over water-treated control): 0.8 % difference

From patent US20210127671A1, “HYPERSENSITIVE RESPONSE ELICITOR PEPTIDES AND USE THEREOF” (priority 2015, published 2021)
